Each structure is given as a SMILES string.

Experiment [1] deals with HOSE cell (normal ovary cell line). Nature of the experiment: Cell growth inhibitory activity against HOSE cell (comparison target). In kind it is cell-based. The conditions noted are these: cultured 72 hr, sulforhodamine B. How it is done: (§1) A cell suspension of oophoroma cell line (A2780) prepared to 2 to 3×10^3/well was added to a well microplate, a given amount of a test substance (0, 1.25, 2.5, 5, 10, 12.5, 20, 25, 50, 100 μM) was added to the culture medium, and the mixture was cultured for 72 hr. Thereafter, 0.4% sulforhodamine B was added to each well, and the absorbance at 570 nm was measured by a microplate reader. The cell growth inhibition ratio was calculated from the above-mentioned formula, and IC50 value was determined from the data. The same test was performed using HOSE cell (normal ovary cell line) as a comparison target instead of A2780 cell, and IC50 value was determined.

Experiment [2] has as its system oophoroma cell line (A2780). The experiment in a line: Test for cell growth inhibitory activity against A2780 (epithelial ovarian cancer). The class given is cell-based. The conditions noted are these: cultured 72 hr, sulforhodamine B. How it is done: An experiment was performed according to the method described in Ahmed SA et al., 1994. Journal of Immunological Methods 170: 211-224, or Boyed M R et al., 1989.
as §1

Regarding `CC(C#N)(COc1ccc(C#Cc2ccccc2)cc1)NC(=O)c1ccc(C(F)(F)F)cc1` (racemic) [1-25], the results for the half-maximal inhibitory concentration (IC50) in experiment [1] and in experiment [2] were 15.3 µM and 4.53 µM, respectively. In experiment [2], `CC(C#N)(COc1ccc(C(F)(F)F)cc1)NC(=O)c1cccc(OC(F)(F)F)c1` (racemic) [1-29] came in with an IC50 of 13.3 µM. This counts as double-digit micromolar. Consider `CC(C#N)(COc1ccc(C(F)(F)F)cc1)NC(=O)Cc1ccc(C(F)(F)C(F)(F)C(F)(F)F)cc1` (stereo not drawn) [2-109], for which half-maximal inhibition in experiment [2] (IC50) required 3.77 µM. For `CC(C#N)(COc1ccc(C(F)(F)F)cc1)NC(=O)c1ccc(C(F)(F)C(F)(F)F)cc1` (racemic) [1-10], the IC50 in experiment [1] was determined as 49.4 µM; in experiment [2], 10.3 µM. In experiment [2], `CCCCCCCCOCC(C)(C#N)NC(=O)Cc1ccc(C(F)(F)F)cc1` (stereo not drawn) [4-1] yielded a half-inhibitory concentration (IC50) of 7.22 µM. In other words, the single-digit micromolar range.

Regarding `CC(C)C(C#N)(COc1ccc(Cl)cc1)NC(=O)Cc1cccc(Cl)c1` (stereo not drawn) [2-27], the IC50 in experiment [1] is 15.8 µM; in experiment [2], 8.81 µM.

Take `CC(C#N)(COc1ccc(Cl)cc1)NC(=O)Cc1ccc(SC(F)(F)C(F)(F)C(F)(F)F)cc1` (stereo not drawn) [2-114]: the concentration for half-maximal inhibition (IC50) in experiment [1] was determined as 19.9 µM; in experiment [2], 3.53 µM. For `CC(C)(C)C#Cc1ccc(OCC(C)(C#N)NC(=O)Cc2ccc(C(F)(F)F)cc2)cc1` (stereo not drawn) [2-120], the concentration for half-maximal inhibition (IC50) in experiment [1] worked out at 10.4 µM; in experiment [2] it was 6.2 µM. In turn, `CC(C)(C)C(C#N)(COc1ccc(C(F)(F)F)cc1)NC(=O)c1ccc(Cl)cc1Cl` (racemic) [1-56] displayed a 50% inhibitory concentration (IC50) in experiment [2] of 11.4 µM. The same measure, in the same setting: the figure for `Cn1nc(C(F)(F)F)cc1C(=O)NC(C)(C#N)COc1ccc(Cl)cc1` (racemic) [1-39] is 6.97 µM.

What is called IC50 is the midpoint of a concentration-inhibition curve. A low value points to higher potency.

For the origin of these results see patent publication US10292960B2, “Anticancer agent comprising aminoacetonitrile compound as active ingredient” (PITNEY PHARMACEUTICALS PTY LIMITED, priority 2013, dated 2019).
